Source: US6589961B2, “9-alkylamino-1-nitroacridine derivatives” (New York Medical College, priority 2000, dated 2003)
Values joined by “and” are separate entries in the source; they are usually repeats but may differ in a detail not shown here. Equal values may be shown once.

How the values were obtained:
Type in all cases: in vivo
[1] = test system: ascites adenocarcinoma Walker 256; test: Antitumor activity against ascites adenocarcinoma Walker 256 in rats (survival); conditions: Wistar rats; for Optimal dose: dose giving the highest antitumor activity, i.p. on days 3, 4 and 5 after tumor transplantation, five doses tested; for Antitumor activity against Walker256 (Survival) Test/Control: mean survival time of test group vs control at the optimal dose, i.p. on days 3, 4 and 5
Procedure: Tumors are transplanted weekly into Wistar rats by intraperitoneal inoculation of 10^6 tumor cells. In the experiments, Walker carcinosarcoma 256 cells are transplanted on day 0 in Wistar rats weighing 75-100 g. by i.p. injection of 10^6 cells per animal. Each acridine is administered i.p. on days 3, 4, and 5 after tumor transplantation. Five rats are in each group at a given drug dose level and a group of 10 rats served as control for all test groups. […] Each acridine is tested at five different doses. The activity of the drug T/C (%) is expressed as % increase in mean survival time (in days) of test group (T) to the mean survival time (in days) of the control (C). Usually, the antitumor activity is presented only for the optimal dose (O.D. mg/kg/day) of tested compounds, at which the highest antitumor activity is observed.

Dunning G cells = test: Antitumor activity in Dunning G induced tumors in Copenhagen rats; conditions: two weeks after treatment withdrawal
Procedure: Four to five week old Copenhagen rats are purchased from Harlan Sprague Dawley, Indianapolis, Ind., and allowed to acclimate for one week, feeding on Purina 5001 rat chow. At the end of one week, the rats are randomized into different experimental groups. Body weights of the animals measured twice a week.
Live Dunning G cells (one million/rat) are injected subcutaneously in all animals to induce tumors. Dunning G cells are non-metastatic tumor producing prostate cancer cells derived from spontaneous tumors from Copenhagen rats. Dunning G and MAT-LyLu cells (Yedavelli et al, 1999, Int. J. Mol. Med. 4:243-248) are grown in RPMI 1640 containing 10% fetal bovine serum (FBS) supplemented with penicillin (50 IU/mL), streptomycin (50 μg/mL), 2 mM L-glutamine and 2.5 mM dexamethasone. Cells are fed twice a week and are trypsinized with 0.05% trypsin-EDTA at 70-80 percent cell confluency.
Animals are injected i.p twice a week with 9-(2′-hydroxyethylamino)-4-methyl-1-nitroacridine (0.8 or 1.0 mg/Kg body weight) 1-nitro-9-hydroxyethylaminoacridine (0.6 mg/Kg body weight) twice a week for three weeks. Injections are started on day 25 for animals injected with Dunning G cells when tumors are palpable (0.5 cm). All animals are housed in hanging cages with three/four animals per cage and had ad libitum access to food and drinking water and are kept on twelve hour diurnal cycle. All injections and tumor measurements are performed under light anesthesia (metofane inhalation). Experimental end point measurements include body weight, tumor incidence. The experiment is terminated when the tumor size in the control animals is 3 cms diameter. Sacrifice of the animals is done by carbon dioxide asphyxiation.
Stock solution of 9-(2′-hydroxyethylamino)-4-methyl-1-nitroacridine is made in dimethylsulfoxide at 0.16 mg/ml. All drugs for injection in animals are diluted in PBS such that the total volume injected is between 0.1 to 0.2 mL. Stock solution of 1-nitro-9-hydroxyethylaminoacridine is made in dimethylsulfoxide at 0.12 mg/ml.

TSU cells = test: Antitumor activity on human prostate tumor (TSU) xenografts in nude mice; conditions: Balb c/nu/nu mice
Procedure: Tumors are induced in six week old Balb c/nu/nu mice which are allowed to acclimate for two weeks by subcutaneous injection of 2×10^6 TSU cells per mouse. TSU cells are human prostate cancer cells (Iizumi et al., 1987, J. Urol. 137:1304-1306). TSU cells are grown in RPMI-1640 medium supplemented with 10% fetal bovine serum and the antibiotics penicillin (50 IU/ml), streptomycin (50 μg/ml) and 2 mM L-glutamine. Cells are fed with fresh media twice a week and are trypsinized using 0.05% trypsin-EDTA. Cells used for injection are always in the log phase of their growth (70-80%) confluent flask and cell viability is checked by trypan-blue exclusion test prior to injection. Only cells >95% […] are used.
Tumors are palpable in the mice by day 7 when treatment with the two drugs, mitoxantrone (0.6 mg/kg) and 9-(2′-hydroxyethylamino)-4-methyl-1-nitroacridine (0.8 mg/kg) is initiated. Treatment is continued twice weekly for three weeks. Mice are lightly anesthetized and tumors are measured and are weighed weekly. The stock concentrations of the drug are 0.12 mg/ml in PBS for mitoxantrone and 0.16 mg/ml in dimethylsulfoxide (DMSO) for 9-(2′-hydroxyethylamino)-4-methyl-1-nitroacridine. Mice are housed 5 animals/cage.

Cc1ccc([N+](=O)[O-])c2c(NCCCO)c3ccccc3nc12 [9-(3′-hydroxypropylamino)-4-methyl-1-nitroacridine]
Optimal dose [1]: 2 mg/kg
Antitumor activity against Walker256 (Survival) Test/Control [1]: 233%

O=[N+]([O-])c1cccc2nc3ccccc3c(NCCO)c12 [1-nitro-9-hydroxyethylaminoacridine, reference compound]
reduction of tumors (Dunning G cells; 0.6 mg/Kg body weight i.p. twice a week for three weeks (FIG. 1 legend says 0.8 mg/Kg)): 50%

COc1ccc2nc3cccc([N+](=O)[O-])c3c(NCCCCO)c2c1 [9-(4′-hydroxybutylamino)-7-methoxy-1-nitroacridine]
Optimal dose [1]: 2 mg/kg
Antitumor activity against Walker256 (Survival) Test/Control [1]: 157%

COc1ccc2nc3c(C)ccc([N+](=O)[O-])c3c(NCCOC(C)=O)c2c1 [9-(2′-acetoxyethylamino)-7-methoxy-4-methyl-1-nitroacridine]
Optimal dose [1]: 25 mg/kg
Antitumor activity against Walker256 (Survival) Test/Control [1]: 133%

CCC(=O)OC(C)CNc1c2ccccc2nc2c(C)ccc([N+](=O)[O-])c12 (stereo not drawn) [9-(2′-propionoxypropylamino)-4-methyl-1-nitroacridine]
Optimal dose [1]: 8 mg/kg
Antitumor activity against Walker256 (Survival) Test/Control [1]: 257%

COc1ccc2nc3cccc([N+](=O)[O-])c3c(NCCO)c2c1 [9-(2′-hydroxyethylamino)-7-methoxy-1-nitroacridine]
Optimal dose [1]: 2 mg/kg
Antitumor activity against Walker256 (Survival) Test/Control [1]: 150% and 200%

O=C1c2c(O)ccc(O)c2C(=O)c2c(NCCNCCO)ccc(NCCNCCO)c21 [mitoxantrone, reference compound]
effect on tumors (FIG. 2) (TSU cells; 0.6 mg/kg twice weekly for three weeks from day 7): showed a reduction till three weeks and the tumors started growing eight weeks after withdrawal of therapy

COc1ccc2nc3c(C)ccc([N+](=O)[O-])c3c(NCCCOC(C)=O)c2c1 [9-(3′-acetoxypropylamino)-7-methoxy-4-methyl-1-nitroacridine]
Optimal dose [1]: 16 mg/kg
Antitumor activity against Walker256 (Survival) Test/Control [1]: 217%

9-(4′-hydroxypropylamino)-7-methoxy-4-methyl-1-nitroacridine
Optimal dose [1]: 8 mg/kg
Antitumor activity against Walker256 (Survival) Test/Control [1]: 183%

COc1ccc([N+](=O)[O-])c2c(NCCO)c3ccccc3nc12 [9-(2′-hydroxyethylamino)-4-methoxy-1-nitroacridine]
Optimal dose [1]: 16 mg/kg
Antitumor activity against Walker256 (Survival) Test/Control [1]: 200%

CCCCOCCNc1c2ccccc2nc2c(C)ccc([N+](=O)[O-])c12 [9-(2′-butyloxyethylamino)-4-methyl-1-nitroacridine]
Optimal dose [1]: 8 mg/kg
Antitumor activity against Walker256 (Survival) Test/Control [1]: 217%

Cc1ccc([N+](=O)[O-])c2c(NCCO)c3ccccc3nc12 [9-(2′-hydroxyethylamino)-4-methyl-1-nitroacridine]
reduction of tumors (Dunning G cells; 0.8 mg/kg i.p. twice a week for three weeks): 65%
reduction of tumors (Dunning G cells; 1.0 mg/kg i.p. twice a week for three weeks): 75%
effect on tumors (FIG. 2) (TSU cells; 0.8 mg/kg twice weekly for three weeks from day 7, observation up to 11 weeks): reduction of the tumors until completely tumor free by five weeks and remained in force until 11 weeks
Optimal dose [1]: 4 mg/kg
Antitumor activity against Walker256 (Survival) Test/Control [1]: 217%

COc1ccc([N+](=O)[O-])c2c(NCCCCO)c3ccccc3nc12 [9-(4′-hydroxybutylamino)-4-methoxy-1-nitroacridine]
Optimal dose [1]: 32 mg/kg
Antitumor activity against Walker256 (Survival) Test/Control [1]: 200%

COc1ccc2nc3c(C)ccc([N+](=O)[O-])c3c(NCCCO)c2c1 [9-(3′-hydroxypropylamino)-7-methoxy-4-methyl-1-nitroacridine]
Optimal dose [1]: 16 mg/kg
Antitumor activity against Walker256 (Survival) Test/Control [1]: 183%

CCC(=O)OCCNc1c2ccccc2nc2cccc([N+](=O)[O-])c12 [9-(2′-propionoxyethylamino)-1-nitroacridine]
Optimal dose [1]: 1 mg/kg
Antitumor activity against Walker256 (Survival) Test/Control [1]: 200%

CCC(=O)OCCNc1c2ccccc2nc2c(C)ccc([N+](=O)[O-])c12 [9-(2′-propionoxyethylamino)-4-methyl-1-nitroacridine]
Optimal dose [1]: 8 mg/kg
Antitumor activity against Walker256 (Survival) Test/Control [1]: 214%

COc1ccc2nc3c(C)ccc([N+](=O)[O-])c3c(NCCO)c2c1 [9-(2′-hydroxyethylamino)-7-methoxy-4-methyl-1-nitroacridine]
Optimal dose [1]: 16 mg/kg
Antitumor activity against Walker256 (Survival) Test/Control [1]: 233%

CC(=O)OCCNc1c2ccccc2nc2cccc([N+](=O)[O-])c12 [9-(2′-acetoxyethylamino)-1-nitroacridine]
Optimal dose [1]: 1 mg/kg
Antitumor activity against Walker256 (Survival) Test/Control [1]: 167%

COc1ccc([N+](=O)[O-])c2c(NCCCO)c3ccccc3nc12 [9-(3′-hydroxypropylamino)-4-methoxy-1-nitroacridine]
Optimal dose [1]: 2 mg/kg
Antitumor activity against Walker256 (Survival) Test/Control [1]: 157%

COc1ccc2nc3cccc([N+](=O)[O-])c3c(NCCCO)c2c1 [9-(3′-hydroxypropylamino)-7-methoxy-1-nitroacridine]
Optimal dose [1]: 0.5 mg/kg
Antitumor activity against Walker256 (Survival) Test/Control [1]: 182% and 229%

CC(=O)OCCNc1c2ccccc2nc2c(C)ccc([N+](=O)[O-])c12 [9-(2′-acetoxyethylamino)-4-methyl-1-nitroacridine]
Optimal dose [1]: 8 mg/kg
Antitumor activity against Walker256 (Survival) Test/Control [1]: 233%

CC(=O)OCCCNc1c2ccccc2nc2c(C)ccc([N+](=O)[O-])c12 [9-(3′-acetoxypropylamino)-4-methyl-1-nitroacridine]
Optimal dose [1]: 8 mg/kg
Antitumor activity against Walker256 (Survival) Test/Control [1]: 157%
